Test results reported in PubChem BioAssay AID1963869 (Molecular Pharmacology Branch, DTP, NCI, 2024).

System: KRAS patient-derived spheroids with HUVEC/MSC, viability
Assay: Anticancer human tumor 323965-272-R-J2-PDC patient-derived pancreatic carcinoma cell line growth inhibition [KRAS2]
Conditions: for IC50: curve of first compound; for viability, T/C: stronger effect = lower value
Outline: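 KRAS-mutant tumor cells were grown as spheroids with HUVEC endothelial cells and human MSCs as stroma. Targeted agents were tested alone and with KRAS pathway inhibitors. Doses started at or near clinical Cmax, or 10 microM, descending half-log.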

[1] = second compound 0.1 µM, first compound 0.0316 µM
[2] = second compound 0.1 µM, first compound 0.1 µM
[3] = second compound 0.1 µM, first compound 0.316 µM
[4] = second compound 0.1 µM, first compound 1 µM
[5] = second compound 0.1 µM, first compound 3.16 µM
[6] = second compound 0.1 µM, first compound 10 µM
[7] = second compound 0.316 µM, first compound 0.0316 µM
[8] = second compound 0.316 µM, first compound 0.1 µM
[9] = second compound 0.316 µM, first compound 0.316 µM
[10] = second compound 0.316 µM, first compound 1 µM
[11] = second compound 0.316 µM, first compound 3.16 µM
[12] = second compound 0.316 µM, first compound 10 µM
[13] = second compound 1 µM, first compound 0.0316 µM
[14] = second compound 1 µM, first compound 0.1 µM
[15] = second compound 1 µM, first compound 0.316 µM
[16] = second compound 1 µM, first compound 1 µM
[17] = second compound 1 µM, first compound 3.16 µM
[18] = second compound 1 µM, first compound 10 µM
[19] = second compound 3.16 µM, first compound 0.0316 µM
[20] = second compound 3.16 µM, first compound 0.1 µM
[21] = second compound 3.16 µM, first compound 0.316 µM
[22] = second compound 3.16 µM, first compound 1 µM
[23] = second compound 3.16 µM, first compound 3.16 µM
[24] = second compound 3.16 µM, first compound 10 µM
[25] = second compound 10 µM, first compound 0.0316 µM
[26] = second compound 10 µM, first compound 0.1 µM
[27] = second compound 10 µM, first compound 0.316 µM
[28] = second compound 10 µM, first compound 1 µM
[29] = second compound 10 µM, first compound 3.16 µM
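Further: spheroids exposed to agents for 7 days.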
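Wherever viability, T/C is given: 100% = DMSO vehicle control viability.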

SMILES	IC50 (second compound 0.1 µM)	IC50 (second compound 0.316 µM)	IC50 (second compound 1 µM)	IC50 (second compound 3.16 µM)	viability, T/C [1]	viability, T/C [2]	viability, T/C [3]	viability, T/C [4]	viability, T/C [5]	viability, T/C [7]	viability, T/C [8]	viability, T/C [9]	viability, T/C [10]	viability, T/C [11]	viability, T/C [13]	viability, T/C [14]	viability, T/C [15]	viability, T/C [16]	viability, T/C [17]	viability, T/C [19]	further results
CC1OCC2(CCN(c3cnc(Sc4ccnc(N)c4Cl)c(N)n3)CC2)C1N (stereo not given) + C=CC(=O)N1CCN(c2nc(=O)n(-c3c(C)ccnc3C(C)C)c3nc(-c4c(O)cccc4F)c(F)cc23)C(C)C1	< 31.6 nM	< 31.6 nM	< 31.6 nM	< 31.6 nM	41.2%	31.8%	25%	15.9%	11.1%	39.1%	29.8%	22.5%	19%	10.7%	46.9%	30.2%	24.1%	17.6%	15%	45.2%	IC50 (second compound 10 µM): < 31.6 nM; viability, T/C [6]: 12%; viability, T/C [12]: 11.6%; viability, T/C [18]: 12.1%; viability, T/C [20]: 38.7%; viability, T/C [21]: 26.9%; viability, T/C [22]: 17.2%; viability, T/C [23]: 15.8%; viability, T/C [24]: 13%; viability, T/C [25]: 33%; viability, T/C [26]: 29.1%; viability, T/C [27]: 19.4%; viability, T/C [28]: 16.4%; viability, T/C [29]: 11.5%; viability, T/C (second compound 10 µM, first compound 10 µM): 12.1%
Cn1nccc1Nc1nccc(-c2cc3c(s2)C(C)(C)N(CCN2CCOCC2)C3=O)n1 + C=CC(=O)N1CCN(c2nc(OCC3CCCN3C)nc3c2CCN(c2cccc4cccc(C)c24)C3)CC1CC#N	< 31.6 nM	58.5 nM	< 31.6 nM	< 31.6 nM	49.1%	49.1%	39.2%	36.4%	32.1%	55.5%	44.9%	40%	37.4%	30.8%	45.5%	41.8%	45.8%	35.7%	28.9%	3.69%	IC50 (second compound 0.0316 µM): 387 nM; viability, T/C (second compound 0.0316 µM, first compound 0.0316 µM): 59.9%; viability, T/C (second compound 0.0316 µM, first compound 0.1 µM): 59.8%; viability, T/C (second compound 0.0316 µM, first compound 0.316 µM): 50.2%; viability, T/C (second compound 0.0316 µM, first compound 1 µM): 43.2%; viability, T/C (second compound 0.0316 µM, first compound 3.16 µM): 31.5%; viability, T/C (second compound 0.0316 µM, first compound 10 µM): 32.5%; viability, T/C [6]: 36.4%; viability, T/C [12]: 35.5%; viability, T/C [18]: 29.5%; viability, T/C [20]: 4.06%; viability, T/C [21]: 2.62%; viability, T/C [22]: 0.91%; viability, T/C [23]: 0.72%; viability, T/C [24]: 0.53%
CC1COCCN1c1cc(-c2ccnn2C)c2ccnc(-c3ccn[nH]3)c2n1 (stereo not given) + C=CC(=O)N1CCN(c2nc(=O)n(-c3c(C)ccnc3C(C)C)c3nc(-c4c(O)cccc4F)c(F)cc23)C(C)C1	11.6 nM	< 10 nM	11.9 nM	< 10 nM	28%	18.7%	13.7%	13.8%	11.8%	28.8%	18%	14.4%	16.1%	12.6%	28%	18.9%	14.5%	14.1%	13.5%	22.8%	IC50 (second compound 10 µM): < 10 nM; viability, T/C (second compound 0.1 µM, first compound 0.01 µM): 53.6%; viability, T/C (second compound 0.316 µM, first compound 0.01 µM): 44.2%; viability, T/C (second compound 1 µM, first compound 0.01 µM): 54.1%; viability, T/C (second compound 3.16 µM, first compound 0.01 µM): 40.6%; viability, T/C [20]: 15.5%; viability, T/C [21]: 14.1%; viability, T/C [22]: 13.3%; viability, T/C [23]: 12.8%; viability, T/C (second compound 10 µM, first compound 0.01 µM): 20.9%; viability, T/C [25]: 17.4%; viability, T/C [26]: 16.8%; viability, T/C [27]: 13.2%; viability, T/C [28]: 13.4%; viability, T/C [29]: 13.2%
